Test results taken from patent US6989380B2, “Treatment of pain” (The WKK Trust, priority 1996, dated 2006).

Each compound was assayed on intractable trigeminal neuralgia (assay: Case history: intractable trigeminal neuralgia). Conditions: person; treatments tried before the combination; relief attributed to placebo effects.
Format: in vivo, human
Protocol: A person suffered from intractable trigeminal neuralgia of many years standing. […] They then were treated with lofepramine, 70 mg bd, together with L-phenylalanine, 500 mg bd.

SMILES | pain relief with earlier treatments
NC(=O)N1c2ccccc2C=Cc2ccccc21 [carbamazepine] | None had provided more than transient relief for a few days
CNCCC(Oc1ccc(C(F)(F)F)cc1)c1ccccc1 (centres unmarked) [fluoxetine] | None had provided more than transient relief for a few days
CN1C(=O)CN=C(c2ccccc2)c2cc(Cl)ccc21 [diazepam] | None had provided more than transient relief for a few days
O=C1NC(=O)C(c2ccccc2)(c2ccccc2)N1 [phenytoin] | None had provided more than transient relief for a few days
CN1CC[C@]23c4c5ccc(O)c4O[C@H]2[C@@H](O)C=C[C@H]3[C@H]1C5 [morpine] | None had provided more than transient relief for a few days
